A melting point compilation (Tetko et al.)

For `CCOc1ccc(-c2ccc(OCC)cc2)cc1`, the melting point was 174 °C.
Molecule `Cc1cc2nc(N)sc2cc1C` has a melting point of 185 to 189 °C.
With `CCCCCCCCc1ccc(NC(=O)c2ccc(C)cc2)cc1` the melting point was 113 °C.
Work on `CC1=C(C(=O)Nc2ccccc2)CCCO1` yielded a melting point of 110 °C.
For `Cc1csc(C(=O)NN)c1Cl`, the melting point was 130 to 132 °C.
With `O=C=Nc1cccc2ccccc12` the melting point was 4 °C.
`CSc1ccccc1C#N` gave a melting point of 36 °C.
With `N#Cc1cc(Br)cc(Br)c1N` the melting point was 152 to 156 °C.
In the case of `CCCC1COC(c2ccc(C#N)cc2)OC1` (centres undefined), the melting point was 57.5 °C.
`NC(=S)c1cccc(Cl)c1` gave a melting point of 110 to 113 °C.
Molecule `COC(=O)CNC(SC)=C(C#N)C#N` has a melting point of 90 °C.
For `CC1(C)OC(=O)C(=Cc2cccc([N+](=O)[O-])c2)C(=O)O1`, the melting point was 322 °C.
`CCCc1cc(C)cc(C)c1` gave a melting point of -59 °C.
With `Clc1nccnc1Cl` the melting point was 22.5 to 24.5 °C.
With `Cc1cc(Cl)cc(Cl)c1N=C=S` the melting point was 57 to 58 °C.
For `CCCCCCCCSCCCCCCCC`, the melting point was 0.5 °C.
In the case of `O=C(O)C1(c2ccc(Cl)cc2)CCCC1`, the melting point was 160 to 164 °C.
With `O=C1c2ccccc2NC1(OC1(c2ccccn2)Nc2ccccc2C1=O)c1ccccn1` (centres undefined) the melting point was 240 °C.
With `Oc1ccccc1C(O)c1ccccc1` (centres undefined) the melting point was 88 °C.
In the case of `CC(=NO)c1ccccn1`, the melting point was 117 to 119 °C.
With `CCCCC(C)(O)CC` (centres undefined) the melting point was -83 °C.
`Cc1cc(C(=O)O)c(C)n1-c1ccc(Cl)cc1` gave a melting point of 230 °C.
Molecule `O=Cc1ccc(F)c(C(=O)O)c1` has a melting point of 175 to 178 °C.
Molecule `N#Cc1ccc(C(Cl)C(Cl)c2ccc(C(Cl)C(Cl)c3ccc(C#N)cc3[N+](=O)[O-])cc2)c([N+](=O)[O-])c1` (centres undefined) has a melting point of 278 °C.
Work on `O=[N+]([O-])c1ccc2c3c(cccc13)-c1ccccc1-2` yielded a melting point of 153 to 157 °C.
`c1ccc(CC(=NNc2cccc(NN=C(Cc3ccccc3)c3ccccc3)c2)c2ccccc2)cc1` showed a melting point of 164 °C.
Work on `CC(=O)N1CC(C)=CC1=O` yielded a melting point of 89 to 90 °C.
In the case of `NC(Cc1ccc(F)cc1F)C(=O)O` (racemic), the melting point was 224 to 226 °C.
For `O=c1n(Cl)c(=O)n(Cl)c(=O)n1Cl`, the melting point was 249 °C.
Molecule `COc1ccc2[nH]c(C)c(CC(=O)O)c2c1` has a melting point of 162 to 165 °C.
`Cc1ccc(C(O)c2ccccc2O)cc1` (centres undefined) gave a melting point of 105 °C.
With `CCCCCCCC(=O)OC(=O)CCCCCCC` the melting point was -1 °C.
In the case of `CS(=O)(=O)c1ccc(C(=O)C2C(=O)CCCC2=O)c(Cl)c1`, the melting point was 139 °C.
Work on `O=C(O)C(CO)c1ccccc1` (centres undefined) yielded a melting point of 118 °C.
`CCC(=O)C(C)(C)C` gave a melting point of -45 °C.
`FC(F)(Cl)CBr` showed a melting point of -76 °C.
With `C=CCNC(=S)NNC(=O)C(=O)c1c[nH]c2ccccc12` the melting point was 229 °C.
`N#CCCNCC(=O)O` showed a melting point of 188 to 193 °C.
In the case of `Nc1ccc(O)c(C(=O)O)c1`, the melting point was 284 °C.
With `O=C(O)C1CC2CC1CCC2O` (centres undefined) the melting point was 160 to 169 °C.
With `CCC(C)OC(=O)C1=C2c3ncccc3ON2C(Cl)C(Cl)C1Cl` (centres undefined) the melting point was 97 °C.
In the case of `O=C(C1=NOC2C(=O)N(c3ccc(Cl)cc3)C(=O)C12)c1ccccc1` (centres undefined), the melting point was 137 °C.
`Nc1ccncc1[N+](=O)[O-]` gave a melting point of 203 °C.
Molecule `CCCC(=O)c1cc(O)c(O)cc1O` has a melting point of 154 °C.
`Cc1cc2c(C#N)c3ccc4ccccc4n3c(=O)c2c(C)n1` gave a melting point of 243 °C.
In the case of `ClCc1csc2ccc(Br)cc12`, the melting point was 106 to 108 °C.
`Nc1cccc(-c2ccccc2)c1` showed a melting point of 33 °C.
`Clc1ncnc2[nH]cnc12` gave a melting point of 300 °C.
With `C=CC1(C)C=C2CCC3C(C)(C(=O)O)CCCC3(C)C2CC1` (centres undefined) the melting point was 218 °C.
`O=C(Nc1ccc(C=Cc2ccc(NC(=O)c3ccccc3)cc2)cc1)c1ccccc1` showed a melting point of 352 °C.
Work on `CC(C)NNC(=O)c1ccncc1` yielded a melting point of 150 °C.
For `N#CCS(=O)(=O)Cc1ccc(Cl)cc1`, the melting point was 179 to 182 °C.
Molecule `CNC(=O)COC(=O)c1ccccc1` has a melting point of 112 °C.
`c1ccc(CC2=NCCN2)cc1` showed a melting point of 174 °C.
`CCN1CCN(c2cc3c(cc2F)c(=O)c(C(=O)O)cn3C2CC2)CC1` gave a melting point of 220 °C.
`Cc1nc(C(=O)O)cs1` gave a melting point of 148 to 149 °C.
Molecule `CSC(=NS(=O)(=O)c1ccccc1)SC` has a melting point of 105 to 107 °C.
For `Cc1cc2cc(N)ccc2[nH]1`, the melting point was 152 to 155 °C.
Work on `NCC(O)CC(=O)O` (racemic) yielded a melting point of 202 °C.
For `CCCCCCSc1nnc(S)s1`, the melting point was 75 °C.
With `O=Cc1cc2c(cc1Cl)OCO2` the melting point was 116 °C.
Work on `CC1=NCCS1` yielded a melting point of -101 °C.
`Nc1ncc(Br)cc1Br` gave a melting point of 104 °C.
With `COC(=O)c1ccc(NC(C)=O)c(NC(C)=O)c1` the melting point was 225 °C.
For `CCC(F)(F)C(=O)O`, the melting point was 8 °C.
In the case of `Cc1cccc(C)c1NC1=NCCCS1`, the melting point was 140 °C.
Work on `Cc1nc(-c2ccccc2)ncc1CO` yielded a melting point of 85 to 86 °C.
Molecule `FC(F)(F)CCCl` has a melting point of -106 °C.
For `Nc1ccccc1/C=C/c1cc(/C=C/c2ccccc2)c([N+](=O)[O-])cc1[N+](=O)[O-]`, the melting point was 193 °C.
For `O=S1(=O)OC(c2ccc(O)cc2)(c2ccc(O)cc2)c2ccccc21`, the melting point was 300 °C.
`O=C(NC(Cc1ccccc1)C(=O)O)OCc1ccccc1` (centres undefined) showed a melting point of 88.5 °C.
Work on `O=Nc1ccc2ccccc2c1O` yielded a melting point of 156 to 158 °C.
`CC(=O)OCC(=O)C12OC(C)(C)OC1CC1C3CC(C=O)=C4C=C(OCCCl)CCC4(C)C3(F)C(O)CC12C` (centres undefined) showed a melting point of 181 °C.
Work on `Clc1cc(Cl)cc(C2(CC(Cl)(Cl)Cl)CO2)c1` (centres undefined) yielded a melting point of 42.8 °C.
With `COP(=S)(OC)Oc1ccc(Sc2ccc(OP(=S)(OC)OC)cc2)cc1` the melting point was 30.3 °C.
In the case of `CN(N=Cc1ccc(Br)cc1)P(=O)(N1CC1)N1CC1`, the melting point was 118 °C.
For `Cc1nc(/C(C#N)=C\c2ccco2)sc1/N=N/c1ccccc1[N+](=O)[O-]`, the melting point was 212 to 213 °C.
In the case of `OC(O)C(F)(F)C(F)(F)C(F)(F)C(F)(F)C(F)(F)C(F)(F)C(F)(F)C(F)(F)F`, the melting point was 91 to 94 °C.
`O=C(O)c1ccc(N2C(=O)C3C(C(=O)c4ccc(Cl)cc4)=NN(c4ccccc4)C3C2=O)cc1` (centres undefined) gave a melting point of 285 °C.
`Nc1cccc2nonc12` showed a melting point of 109 to 111 °C.
With `CC1CCC(C(C)C)C(OC(=O)/C(=C/c2ccccc2)Cc2ccccc2)C1` (centres undefined) the melting point was 64 to 65 °C.
Work on `CCOC(=O)c1ccc(OC)cn1` yielded a melting point of 39 °C.
In the case of `O=C1c2ncccc2-c2cccnc21`, the melting point was 229 °C.
In the case of `CCOC(=O)c1sc(SC(C)C)c2c1CC(C)(C)CC2=O`, the melting point was 87 to 89 °C.
`CCCNC(N)=O` showed a melting point of 107 to 109 °C.
Work on `O=C1C2=C(NC1C(=O)c1ccc(Br)cc1)Oc1c(c(=O)oc3ccccc13)C2c1ccc(Br)cc1` (centres undefined) yielded a melting point of 230 °C.
`CSc1cnccn1` gave a melting point of 44 to 47 °C.
In the case of `N#Cc1c2ccccc2c(C#N)c2ccccc12`, the melting point was 337 °C.
Work on `CCCCCCCCOC(C)=O` yielded a melting point of -38.5 °C.
Work on `CCN(CC)CCOC(=O)C(O)(c1ccccc1)c1ccccc1` yielded a melting point of 51 °C.
`O=[N+]([O-])c1ccc(C=Cc2cccc(/C=C\c3ccc([N+](=O)[O-])cc3[N+](=O)[O-])c2)c([N+](=O)[O-])c1` showed a melting point of 243 °C.
Work on `CC(C)Oc1ccc2c(=O)c(-c3ccccc3)coc2c1` yielded a melting point of 115 °C.
`O=C(NN=C1CCCCC1)C(=O)NN=C1CCCCC1` showed a melting point of 210 °C.
In the case of `COC(=O)CCc1cc(CCC(=O)OC)c([N+](=O)[O-])cc1[N+](=O)[O-]`, the melting point was 71 °C.
In the case of `COc1ccc(C=C2C(=O)NN=C2c2c(O)c3ccccc3n(C)c2=O)cc1`, the melting point was 250 °C.
Work on `O=C(O)Cc1ccc(F)c(F)c1` yielded a melting point of 49 °C.
Molecule `O=C(O)C1CN(C(c2ccccc2)c2ccccc2)C1` has a melting point of 178 to 180 °C.
For `Cn1ncc2cc([N+](=O)[O-])ccc21`, the melting point was 160 °C.
`O=Cc1ccccc1-n1cccn1` showed a melting point of 58 °C.
Work on `CCCCOc1ccc(OCCCC)cc1` yielded a melting point of 45.5 °C.
`O=C(c1ccc(Cl)cc1)c1cc2c(cc1Br)OCCO2` gave a melting point of 129 to 130 °C.
In the case of `Oc1c(Cl)cc(Cl)c(Cl)c1Cl`, the melting point was 70 °C.
Work on `CC12CCC(=O)CC1CCC1C2CCC2(C)C1CCC21OCCO1` (centres undefined) yielded a melting point of 192 to 196 °C.
Molecule `Clc1nc(Br)ns1` has a melting point of 24 to 25 °C.
With `COC1=CC(=O)C2(C)CCC1C2(C)C` (centres undefined) the melting point was 55 °C.
Molecule `NC(=NO)c1cnccc1C(F)(F)F` has a melting point of 183 to 185 °C.
Molecule `N#Cc1cc(F)c(F)cc1Cl` has a melting point of 35 °C.
`O=C1C(=O)c2ccccc2C(Cl)=C1Cl` gave a melting point of 184 °C.
For `CCc1cccc(CC)c1N(COC)C(=O)CCl`, the melting point was 41 °C.
`CC1=NN(c2ccc([N+](=O)[O-])cc2)C(=O)C1[N+](=O)[O-]` (centres undefined) gave a melting point of 119 °C.
With `CCCC(C)I` (centres undefined) the melting point was -50 °C.
With `NNC(=O)C12CC3CC(CC(C3)C1)C2` the melting point was 151 to 153 °C.
`CC(=O)OC1CCC2C3CCC4CC(CC(=O)O)CCC4(C)C3CCC12C` (centres undefined) gave a melting point of 151 to 153 °C.
`CC(=O)OC1C(=O)C2=C(C(=O)C13CC3C)C(O)C(O)C1C(C)(C)CCCC21C` (centres undefined) gave a melting point of 180 to 182 °C.
With `CC1(C)CC(N)CC(C)(CN)C1` (centres undefined) the melting point was 10 °C.
With `COC(=O)Nc1nc2ccc(C(=O)c3cccs3)cc2[nH]1` the melting point was 300 to 305 °C.
In the case of `NCC(=O)O`, the melting point was 182 °C.
In the case of `CCC(C)(C(N)=O)c1ccccc1` (centres undefined), the melting point was 101 °C.
For `O=C(Cl)c1ccc(-c2csnn2)cc1`, the melting point was 168 to 171 °C.
Work on `c1ccc(N2CSc3nnc(-c4cccnc4)n3C2)cc1` yielded a melting point of 214 °C.
For `CC(C)(C)OC(=O)N[C@@H](Cc1c[nH]cn1)C(=O)O`, the melting point was 196 to 199 °C.
With `Cc1ccc(N=c2sccn2C)c(C)c1` the melting point was 44 °C.
In the case of `OC12CCCC1c1ccccc12` (centres undefined), the melting point was 66 °C.
For `COc1ccc(Br)cc1F`, the melting point was 16 °C.
`O=c1ccn(C2CCC(CO)O2)c(=O)[nH]1` (centres undefined) gave a melting point of 128 °C.
For `CCCCCCCCCCCN`, the melting point was 16.5 °C.
In the case of `O=C(Nc1ccc(Cl)cc1C(O)c1ccccc1)c1ccncc1` (centres undefined), the melting point was 211 °C.
Molecule `Nc1c(C(=O)O)sc2nc(-c3ccccc3)cc(C(F)(F)F)c12` has a melting point of 159 to 161 °C.
Molecule `c1ccc2c(c1)cc1ccc3cc4ccccc4c4ccc2c1c34` has a melting point of 282 °C.
